ChEMBL document CHEMBL1201862, “PubChem BioAssay data set” (2004)
Activity calls are given as the source filed them.

Experiments:
[1] = inhibitors of firefly luciferase expression or activity, dose response, H4 neuroglioma cells, luminescence (AID 1990); format: functional, cell-based
[2] = insulin promoter down-regulators in MIN6 cells, imaging, high-content screening, mouse beta cells (AID 1628); format: functional
BJ [3] = assay: cytotoxicity toward BJ-TERT fibroblasts, dose response, cell-based, RAS-independent, luminescence (AID 1933); format: functional; conditions: Homo sapiens
[4] = Luminescence Cell-Based Dose Response HTS to Identify Inhibitors of 5'UTR Stem-Loop Driven Prion Protein mRNA Translation in H4 Neuroglioblastoma Cells. [Related pubchem assays: 1827 (Project Summary), 1813 (Primary HTS)]; format: functional
[5] = cytotoxicity in MIN6 insulinoma cells, dose response, cytotoxicity control, cell-based, mouse insulinoma (AID 2122); format: functional;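 further: confirmatory high-throughput counterscreen run to flag cytotoxic compounds; mouse MIN-6 beta cells carrying an insulin promoter eGFP reporter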
[6] = inhibitors of SNCA 5'UTR-driven reporter translation, confirmation, H4 neuroglioma cells, luminescence (AID 1988); format: functional, cell-based
BJ [7] = assay: cells; format: functional, cell-based; conditions: Homo sapiens
BJ [8] = assay: cytotoxicity toward BJ-TERT-LT-ST fibroblasts, dose response, cell-based, RAS-independent, luminescence (AID 1935); format: functional; conditions: Homo sapiens;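 further: BJ fibroblasts immortalized with TERT plus LT and ST oncogenes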
[9] = cytotoxicity toward DRD oncogenic fibroblasts, dose response, cell-based, non-viral oncogenic, luminescence (AID 1934); format: functional; conditions: Homo sapiens
[10] = THP-1 cell cytotoxicity, dose response, cytotoxicity control for non-replicating M. tuberculosis project (AID 489025); format: functional
[11] = HepG2 cell cytotoxicity, dose response, cytotoxicity control for non-replicating M. tuberculosis project (AID 489018); format: functional; conditions: Mycobacterium tuberculosis
[12] = Vero E6 cell cytotoxicity, dose response, cytotoxicity control for non-replicating M. tuberculosis project, secondary assay (AID 492998); format: functional, VeroE6; conditions: Vero C1008
[13] = cytotoxicity in HEK-293T cells, dose response, cytotoxicity control for TCR NF-kB inhibitor project, luminescence, T-cell screen hits (AID 489026); format: functional, cell-based;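 further: cells exposed to compound about 14 hours before the viability readout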
cells = format: functional
[14] = target: T1, Replicative DNA helicase DnaB (Mycobacterium tuberculosis, UniProt P9WMR3); assay: DnaB intein splicing inhibitors, dose response, biochemical, cell-free fluorescence (AID 449749); format: functional
T1 sequence (P9WMR3 whole entry): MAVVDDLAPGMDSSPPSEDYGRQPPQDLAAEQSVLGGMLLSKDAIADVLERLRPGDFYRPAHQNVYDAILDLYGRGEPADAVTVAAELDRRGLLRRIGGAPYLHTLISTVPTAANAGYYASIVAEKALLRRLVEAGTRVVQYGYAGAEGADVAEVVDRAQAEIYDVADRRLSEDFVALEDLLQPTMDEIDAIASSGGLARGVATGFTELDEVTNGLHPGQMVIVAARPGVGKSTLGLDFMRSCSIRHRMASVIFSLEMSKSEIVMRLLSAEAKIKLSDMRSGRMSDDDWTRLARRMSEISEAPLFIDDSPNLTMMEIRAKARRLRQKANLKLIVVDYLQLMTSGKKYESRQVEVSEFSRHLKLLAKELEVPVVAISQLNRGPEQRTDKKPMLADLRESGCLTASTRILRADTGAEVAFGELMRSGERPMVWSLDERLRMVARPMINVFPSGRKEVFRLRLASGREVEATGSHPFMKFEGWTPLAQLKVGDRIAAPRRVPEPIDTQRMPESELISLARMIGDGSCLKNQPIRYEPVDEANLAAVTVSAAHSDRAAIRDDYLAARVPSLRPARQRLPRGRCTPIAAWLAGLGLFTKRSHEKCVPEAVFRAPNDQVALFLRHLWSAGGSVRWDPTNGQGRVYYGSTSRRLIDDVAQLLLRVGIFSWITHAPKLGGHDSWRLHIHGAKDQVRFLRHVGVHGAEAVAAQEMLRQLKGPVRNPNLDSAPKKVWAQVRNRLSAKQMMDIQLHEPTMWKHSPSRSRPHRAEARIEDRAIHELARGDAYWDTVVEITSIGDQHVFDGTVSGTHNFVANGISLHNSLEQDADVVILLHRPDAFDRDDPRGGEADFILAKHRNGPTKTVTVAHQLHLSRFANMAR

Protein RecA = target: T2, Protein RecA (Mycobacterium tuberculosis, UniProt P9WHJ3); assay: Fluorescence Cell-Free Homogeneous Dose Retest to Identify Inhibitors of RecA-Intein Splicing Activity. [Related pubchem assays (depositor defined):AID2097, AID2223, AID489010, AID492950]; format: functional
T2 sequence (P9WHJ3 whole entry): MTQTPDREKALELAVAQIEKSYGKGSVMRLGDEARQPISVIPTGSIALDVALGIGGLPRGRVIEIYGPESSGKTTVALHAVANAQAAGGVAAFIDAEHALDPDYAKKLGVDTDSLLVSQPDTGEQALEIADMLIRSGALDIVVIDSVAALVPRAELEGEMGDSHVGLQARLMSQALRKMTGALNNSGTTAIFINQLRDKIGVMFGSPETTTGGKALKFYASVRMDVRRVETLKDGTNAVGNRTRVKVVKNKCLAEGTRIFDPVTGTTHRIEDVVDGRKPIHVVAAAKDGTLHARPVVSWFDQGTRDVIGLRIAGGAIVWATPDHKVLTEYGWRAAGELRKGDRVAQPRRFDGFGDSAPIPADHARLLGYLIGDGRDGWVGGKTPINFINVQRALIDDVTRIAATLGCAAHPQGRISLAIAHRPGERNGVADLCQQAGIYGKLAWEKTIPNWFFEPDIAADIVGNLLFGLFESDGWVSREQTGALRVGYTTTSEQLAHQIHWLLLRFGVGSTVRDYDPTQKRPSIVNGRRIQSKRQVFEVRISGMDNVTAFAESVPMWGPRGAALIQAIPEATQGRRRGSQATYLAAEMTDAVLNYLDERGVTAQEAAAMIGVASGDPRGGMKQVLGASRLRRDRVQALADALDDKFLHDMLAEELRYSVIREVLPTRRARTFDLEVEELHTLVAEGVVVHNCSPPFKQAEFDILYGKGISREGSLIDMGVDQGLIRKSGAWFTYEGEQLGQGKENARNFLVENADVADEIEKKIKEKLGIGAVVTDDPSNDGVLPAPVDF

Cytochrome P450 2D6 = Cytochrome P450 2D6 (Homo sapiens, UniProt P10635);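 further: CYP2D6 member of a cytochrome P450 panel assay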
Sequence of Cytochrome P450 2D6 (P10635 whole entry): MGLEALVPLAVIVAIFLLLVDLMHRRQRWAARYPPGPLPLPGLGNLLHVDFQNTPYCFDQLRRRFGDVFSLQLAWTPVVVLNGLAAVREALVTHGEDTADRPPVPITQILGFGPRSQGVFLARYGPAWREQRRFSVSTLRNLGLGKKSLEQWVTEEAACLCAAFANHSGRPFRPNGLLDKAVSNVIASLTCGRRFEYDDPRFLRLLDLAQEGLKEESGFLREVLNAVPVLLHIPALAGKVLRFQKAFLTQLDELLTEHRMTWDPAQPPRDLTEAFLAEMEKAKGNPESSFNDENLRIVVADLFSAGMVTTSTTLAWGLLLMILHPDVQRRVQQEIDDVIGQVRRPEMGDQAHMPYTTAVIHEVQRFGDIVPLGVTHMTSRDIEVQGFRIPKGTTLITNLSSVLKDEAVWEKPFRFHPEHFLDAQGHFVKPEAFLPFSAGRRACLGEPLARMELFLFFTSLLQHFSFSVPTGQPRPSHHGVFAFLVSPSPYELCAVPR

[15] = target: T3, Tyrosine-protein phosphatase non-receptor type 7 (Homo sapiens, UniProt P35236); format: functional
T3 sequence (P35236 whole entry): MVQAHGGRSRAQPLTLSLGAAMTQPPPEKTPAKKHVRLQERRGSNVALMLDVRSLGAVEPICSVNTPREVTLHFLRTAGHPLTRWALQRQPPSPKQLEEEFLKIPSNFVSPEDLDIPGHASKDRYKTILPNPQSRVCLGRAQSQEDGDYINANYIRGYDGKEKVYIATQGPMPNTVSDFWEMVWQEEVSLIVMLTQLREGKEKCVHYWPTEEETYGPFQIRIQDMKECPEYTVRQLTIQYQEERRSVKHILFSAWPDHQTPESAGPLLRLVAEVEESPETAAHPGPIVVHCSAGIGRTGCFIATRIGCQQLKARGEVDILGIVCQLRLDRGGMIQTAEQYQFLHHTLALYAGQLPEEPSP

[16] = target: T4, Tyrosine-protein phosphatase non-receptor type 22 (Homo sapiens, UniProt Q9Y2R2); format: functional
T4 sequence (Q9Y2R2 whole entry): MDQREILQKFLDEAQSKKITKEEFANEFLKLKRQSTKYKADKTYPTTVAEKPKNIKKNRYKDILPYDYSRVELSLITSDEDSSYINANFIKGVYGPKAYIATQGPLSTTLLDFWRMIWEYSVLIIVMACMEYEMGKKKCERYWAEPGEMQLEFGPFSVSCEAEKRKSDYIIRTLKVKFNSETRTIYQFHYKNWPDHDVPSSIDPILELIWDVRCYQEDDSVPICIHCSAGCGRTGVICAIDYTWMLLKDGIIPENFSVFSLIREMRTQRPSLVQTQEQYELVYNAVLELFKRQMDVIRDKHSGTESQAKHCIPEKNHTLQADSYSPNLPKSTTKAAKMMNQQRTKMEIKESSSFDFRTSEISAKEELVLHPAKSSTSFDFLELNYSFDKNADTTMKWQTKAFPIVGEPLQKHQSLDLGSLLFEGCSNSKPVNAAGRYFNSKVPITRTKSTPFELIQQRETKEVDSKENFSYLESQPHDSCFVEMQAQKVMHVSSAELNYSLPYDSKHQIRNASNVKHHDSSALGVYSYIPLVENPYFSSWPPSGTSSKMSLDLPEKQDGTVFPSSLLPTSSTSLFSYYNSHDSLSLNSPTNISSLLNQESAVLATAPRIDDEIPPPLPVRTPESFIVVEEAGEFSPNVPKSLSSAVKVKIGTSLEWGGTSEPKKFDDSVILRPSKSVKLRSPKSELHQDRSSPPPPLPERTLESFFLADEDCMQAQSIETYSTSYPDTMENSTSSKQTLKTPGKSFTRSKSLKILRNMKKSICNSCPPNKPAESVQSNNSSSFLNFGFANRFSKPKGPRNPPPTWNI

[17] = target: T4, Tyrosine-protein phosphatase non-receptor type 22; format: functional; remark: listed apart in the source
SUMO E1/E2 = SUMO E1/E2 (Homo sapiens, UniProt P63279+Q9UBE0+Q9UBT2); assay: SAR analysis of SUMOylation using HTRF in an in-Vitro dose response assay. [Related pubchem assays (depositor defined):AID2006, AID2011, AID2018, AID2069, AID2658]; format: functional
Sequence of SUMO E1/E2 (Q9UBE0 whole entry): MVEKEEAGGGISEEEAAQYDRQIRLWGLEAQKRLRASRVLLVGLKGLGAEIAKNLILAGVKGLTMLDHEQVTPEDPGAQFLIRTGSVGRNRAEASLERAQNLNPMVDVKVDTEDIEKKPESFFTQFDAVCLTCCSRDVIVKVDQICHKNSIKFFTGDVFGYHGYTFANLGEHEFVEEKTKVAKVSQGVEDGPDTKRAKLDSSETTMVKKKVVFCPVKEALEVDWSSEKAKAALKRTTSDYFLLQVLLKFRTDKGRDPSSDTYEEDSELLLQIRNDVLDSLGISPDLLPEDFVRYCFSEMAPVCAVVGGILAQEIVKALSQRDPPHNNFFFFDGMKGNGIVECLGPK
Sequence of SUMO E1/E2 (Q9UBT2 whole entry): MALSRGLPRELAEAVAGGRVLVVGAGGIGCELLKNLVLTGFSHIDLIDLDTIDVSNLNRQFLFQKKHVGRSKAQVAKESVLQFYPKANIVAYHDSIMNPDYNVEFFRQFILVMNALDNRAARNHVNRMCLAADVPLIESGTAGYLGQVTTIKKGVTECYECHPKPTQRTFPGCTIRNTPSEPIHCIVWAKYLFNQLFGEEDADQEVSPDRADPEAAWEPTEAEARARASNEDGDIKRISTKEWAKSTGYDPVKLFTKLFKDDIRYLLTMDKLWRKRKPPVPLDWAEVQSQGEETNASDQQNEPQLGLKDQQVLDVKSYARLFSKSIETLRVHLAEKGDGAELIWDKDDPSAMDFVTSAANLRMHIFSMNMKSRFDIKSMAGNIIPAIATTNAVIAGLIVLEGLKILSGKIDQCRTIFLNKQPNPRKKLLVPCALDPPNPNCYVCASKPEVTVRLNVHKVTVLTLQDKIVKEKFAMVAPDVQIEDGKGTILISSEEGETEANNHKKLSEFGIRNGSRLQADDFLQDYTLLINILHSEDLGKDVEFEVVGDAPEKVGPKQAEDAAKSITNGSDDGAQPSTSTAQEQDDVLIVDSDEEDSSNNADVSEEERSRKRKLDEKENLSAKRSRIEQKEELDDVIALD
Sequence of SUMO E1/E2 (P63279 whole entry): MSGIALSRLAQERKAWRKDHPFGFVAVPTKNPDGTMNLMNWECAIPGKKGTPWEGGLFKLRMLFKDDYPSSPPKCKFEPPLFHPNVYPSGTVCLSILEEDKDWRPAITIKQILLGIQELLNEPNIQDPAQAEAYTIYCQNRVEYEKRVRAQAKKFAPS

[18] = target: Lysine-specific demethylase 4A (Homo sapiens, UniProt O75164); assay: JMJD2A histone demethylase inhibitors, dose response, selectivity assay for GASC-1 inhibitor project, biochemical, DELFIA europium, cherry-picked samples (AID 488840)
Sequence of Lysine-specific demethylase 4A (O75164 whole entry): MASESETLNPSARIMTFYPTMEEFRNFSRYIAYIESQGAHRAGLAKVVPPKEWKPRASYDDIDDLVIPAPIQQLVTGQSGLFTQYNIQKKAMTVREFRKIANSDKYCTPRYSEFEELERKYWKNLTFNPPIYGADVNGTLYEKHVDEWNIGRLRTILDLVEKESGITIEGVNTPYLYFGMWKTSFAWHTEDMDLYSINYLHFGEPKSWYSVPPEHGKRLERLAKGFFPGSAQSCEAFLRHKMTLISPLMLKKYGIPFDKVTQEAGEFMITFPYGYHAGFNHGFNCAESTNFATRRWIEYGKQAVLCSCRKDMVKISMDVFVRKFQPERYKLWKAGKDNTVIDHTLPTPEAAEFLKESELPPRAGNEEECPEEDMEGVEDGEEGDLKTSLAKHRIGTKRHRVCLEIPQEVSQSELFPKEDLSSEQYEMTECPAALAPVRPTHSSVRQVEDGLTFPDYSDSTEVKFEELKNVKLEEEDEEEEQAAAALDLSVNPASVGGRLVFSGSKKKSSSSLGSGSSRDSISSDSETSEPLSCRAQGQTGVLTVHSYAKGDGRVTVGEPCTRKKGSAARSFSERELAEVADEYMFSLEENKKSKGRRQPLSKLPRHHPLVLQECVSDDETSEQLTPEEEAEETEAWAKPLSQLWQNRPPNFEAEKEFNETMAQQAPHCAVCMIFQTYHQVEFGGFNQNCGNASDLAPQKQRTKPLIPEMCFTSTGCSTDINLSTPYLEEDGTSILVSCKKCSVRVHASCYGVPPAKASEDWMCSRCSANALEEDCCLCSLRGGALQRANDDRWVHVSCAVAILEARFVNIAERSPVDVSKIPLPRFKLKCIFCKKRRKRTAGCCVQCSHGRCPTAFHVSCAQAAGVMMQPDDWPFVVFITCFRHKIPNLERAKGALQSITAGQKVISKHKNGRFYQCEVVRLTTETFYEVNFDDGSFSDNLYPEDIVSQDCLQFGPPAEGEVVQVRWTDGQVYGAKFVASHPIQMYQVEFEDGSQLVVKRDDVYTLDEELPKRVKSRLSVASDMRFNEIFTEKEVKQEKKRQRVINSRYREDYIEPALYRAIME

[19] = target: Lysine-specific demethylase 4C (Homo sapiens, UniProt Q9H3R0); assay: GASC-1 (JMJD2C) histone demethylase inhibitors, dose response, biochemical, DELFIA europium, cherry-picked samples (AID 488835); format: functional
Sequence of Lysine-specific demethylase 4C (Q9H3R0 whole entry): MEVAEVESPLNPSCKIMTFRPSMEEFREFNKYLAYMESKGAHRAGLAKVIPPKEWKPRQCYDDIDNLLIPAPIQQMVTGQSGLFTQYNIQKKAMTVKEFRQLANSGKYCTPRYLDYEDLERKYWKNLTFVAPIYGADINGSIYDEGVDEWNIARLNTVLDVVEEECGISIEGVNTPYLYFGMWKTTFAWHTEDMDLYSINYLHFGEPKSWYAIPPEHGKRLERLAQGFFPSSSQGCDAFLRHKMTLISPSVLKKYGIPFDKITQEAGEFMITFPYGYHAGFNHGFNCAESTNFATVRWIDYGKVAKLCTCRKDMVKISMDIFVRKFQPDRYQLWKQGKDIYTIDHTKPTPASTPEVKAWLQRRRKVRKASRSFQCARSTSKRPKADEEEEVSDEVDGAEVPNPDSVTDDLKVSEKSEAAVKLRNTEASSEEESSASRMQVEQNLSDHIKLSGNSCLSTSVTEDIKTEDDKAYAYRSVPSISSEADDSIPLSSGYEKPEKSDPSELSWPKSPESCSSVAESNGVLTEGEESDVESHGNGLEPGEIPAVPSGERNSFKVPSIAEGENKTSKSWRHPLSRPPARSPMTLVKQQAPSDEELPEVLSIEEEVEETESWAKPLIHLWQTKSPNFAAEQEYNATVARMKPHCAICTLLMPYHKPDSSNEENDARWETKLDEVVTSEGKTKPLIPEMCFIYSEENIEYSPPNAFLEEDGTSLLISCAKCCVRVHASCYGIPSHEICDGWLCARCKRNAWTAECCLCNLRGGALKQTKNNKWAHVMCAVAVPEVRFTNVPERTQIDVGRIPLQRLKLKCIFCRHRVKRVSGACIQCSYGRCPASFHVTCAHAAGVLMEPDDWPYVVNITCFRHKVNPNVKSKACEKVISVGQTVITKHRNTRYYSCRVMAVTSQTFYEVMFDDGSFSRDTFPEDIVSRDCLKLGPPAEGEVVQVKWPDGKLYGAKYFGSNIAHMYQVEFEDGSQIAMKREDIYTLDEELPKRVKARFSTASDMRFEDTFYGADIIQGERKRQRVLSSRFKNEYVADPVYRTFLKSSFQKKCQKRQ

## COc1ccc(Nc2cc(C)nc(-n3nc(C)cc3C)n2)cc1
[1]
  EC50: 0.266 µM (active)
[2]
  IC50: 2.54 µM (active)
BJ [3]
  EC50: 0.625 µM (active)
[4]
  EC50: 0.142 µM (active)
[5]
  IC50: < 0.25 µM (active)
[6]
  EC50: < 0.195 µM (active)
BJ [7]
  EC50: 0.973 µM (active)
BJ [8]
  EC50: 0.388 µM (inconclusive)
[9]
  EC50: 0.4 µM (active)
[10]
  CC50: 0.201 µM (active)
[11]
  CC50: > 20 µM (active)
[12]
  CC50: 1.41 µM (active)
[13]
  IC50: > 80 µM (inactive)
cells
  IC50: 0.38 µM (active)

## CCO/C(O)=C1/C(C)=NC2(O)c3ccccc3C(=O)C12O (stereo not drawn)
[14]
  AC50: 24 µM (active)
Protein RecA
  EC50: 18.1 µM (active)
Cytochrome P450 2D6
  AC50: inconclusive

## Cc1ccc(N2CCN(CCCCN3C(=O)C4CCCN4C3=O)CC2)cc1 (stereo not drawn)
[15]
  IC50: > 79.4 µM (inactive)
[16]
  IC50: > 79.4 µM (inactive)
[17]
  IC50: > 79.4 µM (inactive)

## CC(=NOCc1nc2ccccc2c(=O)n1N=Cc1cc([N+](=O)[O-])ccc1O)c1ccccc1
SUMO E1/E2
  IC50: 27 µM (active)

## COc1ccccc1NC(=O)COC(=O)c1nc(O)nc(O)c1N
[18]
  AC50: 8.34 µM (active)
[19]
  AC50: 6.73 µM (active)
